Results: PubChem BioAssay AID328 (DTP/NCI, 2004)
“And” between values parts separate entries of the source, which are not always exact repeats. Equal entries are not always repeated. Toxic doses and inconclusive results are not listed. The calls were made as follows: active = survival T/C of 150% or more; inactive = T/C below 125% in these data.

Tested on: BDF1 mice, P388 leukemia ip, median survival T/C
Assay: NCI In Vivo Anticancer Drug Screen. Data for tumor model P388 Leukemia (intraperitoneal) in B6D2F1 (BDF1) mice
Conditions: endpoint: median survival time, higher = longer survival
How it was run: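 Steps: implant the tumour, treat one group with compound and another with vehicle, record survival, then divide treated by control.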

Measured: T/C

COC(C(=O)C(O)C(C)O)C1Cc2cc3cc(OC4CC(OC(C)=O)C(OC5CC(O)C(OC)C(C)O5)C(C)O4)cc(O)c3c(O)c2C(=O)C1OC1CC(OC2CC(OC3CC(C)(O)C(OC(=O)C(C)C)C(C)O3)C(O)C(C)O2)C(O)C(C)O1 (stereo unspecified)
inactive: dose: 0.05 mg/kg/injection, schedule: Q01DX010 (ip), vehicle: saline 113 % of control | dose: 0.1 mg/kg/injection, schedule: Q01DX010 (ip), vehicle: saline 90 % of control | dose: 0.25 mg/kg/injection, schedule: Q01DX009 (ip), vehicle: saline 111 % of control | dose: 0.37 mg/kg/injection, schedule: Q01DX009 (sc), vehicle: carboxymethylcellulose (CMC) 100 % of control | dose: 0.5 mg/kg/injection, schedule: Q01DX001 (ip), vehicle: other 104 % of control | dose: 0.5 mg/kg/injection, schedule: Q01DX009 (ip), vehicle: saline 94 % of control and 100 % of control | dose: 0.75 mg/kg/injection, schedule: Q01DX009 (sc), vehicle: carboxymethylcellulose (CMC) 100 % of control | dose: 1.0 mg/kg/injection, schedule: Q01DX001 (ip), vehicle: other 108 % of control | dose: 1.0 mg/kg/injection, schedule: Q01DX001 (sc), vehicle: carboxymethylcellulose (CMC) 100 % of control | dose: 1.0 mg/kg/injection, schedule: Q01DX009 (ip), vehicle: saline 111 % of control and 100 % of control | dose: 1.0 mg/kg/injection, schedule: Q## X024 (ip), vehicle: carboxymethylcellulose (CMC) 110 % of control | dose: 1.5 mg/kg/injection, schedule: Q01DX009 (oral), vehicle: carboxymethylcellulose (CMC) 100 % of control | dose: 1.5 mg/kg/injection, schedule: Q01DX009 (sc), vehicle: carboxymethylcellulose (CMC) 104 % of control | dose: 2.0 mg/kg/injection, schedule: Q01DX001 (ip), vehicle: other 116 % of control | dose: 2.0 mg/kg/injection, schedule: Q01DX001 (ip), vehicle: saline 116 % of control | dose: 2.0 mg/kg/injection, schedule: Q01DX001 (sc), vehicle: carboxymethylcellulose (CMC) 100 % of control | dose: 2.0 mg/kg/injection, schedule: Q01DX009 (ip), vehicle: saline 111 % of control | dose: 2.0 mg/kg/injection, schedule: Q## X024 (ip), vehicle: carboxymethylcellulose (CMC) 90 % of control | dose: 3.0 mg/kg/injection, schedule: Q01DX009 (ip), vehicle: carboxymethylcellulose (CMC) 95 % of control | dose: 3.0 mg/kg/injection, schedule: Q01DX009 (oral), vehicle: carboxymethylcellulose (CMC) 90 % of control | dose: 3.0 mg/kg/injection, schedule: Q01DX009 (sc), vehicle: carboxymethylcellulose (CMC) 100 % of control | dose: 3.2 mg/kg/injection, schedule: Q01DX010 (ip), vehicle: saline 114 % of control | dose: 4.0 mg/kg/injection, schedule: Q01DX001 (ip), vehicle: carboxymethylcellulose (CMC) 120 % of control | dose: 4.0 mg/kg/injection, schedule: Q01DX001 (ip), vehicle: other 116 % of control | dose: 4.0 mg/kg/injection, schedule: Q01DX001 (oral), vehicle: carboxymethylcellulose (CMC) 90 % of control | dose: 4.0 mg/kg/injection, schedule: Q01DX001 (sc), vehicle: carboxymethylcellulose (CMC) 100 % of control | dose: 4.0 mg/kg/injection, schedule: Q## X024 (ip), vehicle: carboxymethylcellulose (CMC) 100 % of control | dose: 6.0 mg/kg/injection, schedule: Q01DX009 (oral), vehicle: carboxymethylcellulose (CMC) 90 % of control | dose: 8.0 mg/kg/injection, schedule: Q01DX001 (oral), vehicle: carboxymethylcellulose (CMC) 90 % of control | dose: 8.0 mg/kg/injection, schedule: Q01DX001 (sc), vehicle: carboxymethylcellulose (CMC) 109 % of control | dose: 12.0 mg/kg/injection, schedule: Q01DX009 (oral), vehicle: carboxymethylcellulose (CMC) 100 % of control | dose: 16.0 mg/kg/injection, schedule: Q01DX001 (oral), vehicle: carboxymethylcellulose (CMC) 100 % of control | dose: 32.0 mg/kg/injection, schedule: Q01DX001 (oral), vehicle: carboxymethylcellulose (CMC) 90 % of control | dose: 25.0 micrograms/kg/injection, schedule: Q01DX010 (ip), vehicle: saline 100 % of control | dose: 50.0 micrograms/kg/injection, schedule: Q01DX010 (ip), vehicle: saline 122 % of control | dose: 62.5 micrograms/kg/injection, schedule: Q01DX010 (ip), vehicle: saline 109 % of control | dose: 125.0 micrograms/kg/injection, schedule: Q01DX010 (ip), vehicle: saline 109 % of control
active: dose: 0.2 mg/kg/injection, schedule: Q01DX010 (ip), vehicle: saline 154 % of control | dose: 0.25 mg/kg/injection, schedule: Q01DX009 (ip), vehicle: other 150 % of control | dose: 0.25 mg/kg/injection, schedule: Q01DX010 (ip), vehicle: saline 154 % of control and 172 % of control | dose: 0.36 mg/kg/injection, schedule: Q01DX005 (ip), vehicle: carboxymethylcellulose (CMC) 155 % of control | dose: 0.37 mg/kg/injection, schedule: Q01DX009 (ip), vehicle: carboxymethylcellulose (CMC) 155 % of control | dose: 0.38 mg/kg/injection, schedule: Q01DX010 (ip), vehicle: saline 177 % of control | dose: 0.4 mg/kg/injection, schedule: Q01DX010 (ip), vehicle: saline 157 % of control and 172 % of control | dose: 0.5 mg/kg/injection, schedule: Q01DX009 (ip), vehicle: other 162 % of control | dose: 0.5 mg/kg/injection, schedule: Q01DX010 (ip), vehicle: saline 190 % of control and 213 % of control | dose: 0.75 mg/kg/injection, schedule: Q01DX005 (ip), vehicle: carboxymethylcellulose (CMC) 165 % of control | dose: 0.75 mg/kg/injection, schedule: Q01DX009 (ip), vehicle: carboxymethylcellulose (CMC) 190 % of control | dose: 0.75 mg/kg/injection, schedule: Q01DX010 (ip), vehicle: saline 218 % of control | dose: 1.0 mg/kg/injection, schedule: Q01DX009 (ip), vehicle: other 179 % of control | dose: 1.0 mg/kg/injection, schedule: Q01DX010 (ip), vehicle: saline 240 % of control and 227 % of control and 195 % of control | dose: 1.0 mg/kg/injection, schedule: Q## X003 (ip), vehicle: carboxymethylcellulose (CMC) 165 % of control | dose: 1.0 mg/kg/injection, schedule: Q## X008 (ip), vehicle: carboxymethylcellulose (CMC) 155 % of control | dose: 1.5 mg/kg/injection, schedule: Q01DX005 (ip), vehicle: carboxymethylcellulose (CMC) 215 % of control | dose: 1.5 mg/kg/injection, schedule: Q01DX009 (ip), vehicle: carboxymethylcellulose (CMC) 235 % of control | dose: 1.5 mg/kg/injection, schedule: Q01DX010 (ip), vehicle: saline 195 % of control and 218 % of control | dose: 1.6 mg/kg/injection, schedule: Q01DX010 (ip), vehicle: saline 161 % of control | dose: 2.0 mg/kg/injection, schedule: Q01DX010 (ip), vehicle: saline 227 % of control | dose: 2.0 mg/kg/injection, schedule: Q## X003 (ip), vehicle: carboxymethylcellulose (CMC) 150 % of control | dose: 3.0 mg/kg/injection, schedule: Q01DX005 (ip), vehicle: carboxymethylcellulose (CMC) 260 % of control | dose: 4.0 mg/kg/injection, schedule: Q01DX009 (ip), vehicle: other 208 % of control | dose: 4.0 mg/kg/injection, schedule: Q## X008 (ip), vehicle: carboxymethylcellulose (CMC) 155 % of control | dose: 200.0 micrograms/kg/injection, schedule: Q01DX010 (ip), vehicle: saline 154 % of control | dose: 400.0 micrograms/kg/injection, schedule: Q01DX010 (ip), vehicle: saline 154 % of control | dose: 500.0 micrograms/kg/injection, schedule: Q01DX010 (ip), vehicle: saline 209 % of control | dose: 800.0 micrograms/kg/injection, schedule: Q01DX010 (ip), vehicle: saline 181 % of control
